Values joined by “and” are separate entries in the source; they are usually repeats but may differ in a detail not shown here. Equal entries are not always repeated. Inconclusive results and toxic doses are left out. Rule for the calls: active = survival T/C of 150% or more; inactive = T/C below 125% in these data.
Test system: P388 leukemia ip, CD2F1 mice, survival T/C
Assay: NCI In Vivo Anticancer Drug Screen. Data for tumor model P388 Leukemia (intraperitoneal) in CD2F1 (CDF1) mice
Conditions: endpoint: median survival time, higher = longer survival
How it was run: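 Mice carrying the transplanted tumor received test compound or vehicle. Survival was recorded in each group, and the value is the treated-group measurement divided by that of the vehicle-treated control group.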

[1] = dose: 50.0 mg/kg/injection, schedule: Q01DX005 (ip), vehicle: saline with Tween-80
[2] = dose: 100.0 mg/kg/injection, schedule: Q01DX005 (ip), vehicle: saline with Tween-80
[3] = dose: 200.0 mg/kg/injection, schedule: Q01DX005 (ip), vehicle: saline with Tween-80
[4] = dose: 25.0 mg/kg/injection, schedule: Q01DX009 (ip), vehicle: Klucel (hydroxypropylcellulose) (HPC)
[5] = dose: 50.0 mg/kg/injection, schedule: Q01DX009 (ip), vehicle: Klucel (hydroxypropylcellulose) (HPC)
[6] = dose: 100.0 mg/kg/injection, schedule: Q01DX009 (ip), vehicle: Klucel (hydroxypropylcellulose) (HPC)
[7] = dose: 200.0 mg/kg/injection, schedule: Q01DX009 (ip), vehicle: Klucel (hydroxypropylcellulose) (HPC)
[8] = dose: 100.0 mg/kg/injection, schedule: Q01DX009 (ip), vehicle: saline
[9] = dose: 200.0 mg/kg/injection, schedule: Q01DX009 (ip), vehicle: saline
[10] = dose: 50.0 mg/kg/injection, schedule: Q01DX009 (ip), vehicle: saline
[11] = dose: 50.0 mg/kg/injection, schedule: Q01DX005 (ip), vehicle: Klucel (hydroxypropylcellulose) (HPC)
[12] = dose: 100.0 mg/kg/injection, schedule: Q01DX005 (ip), vehicle: Klucel (hydroxypropylcellulose) (HPC)
[13] = dose: 200.0 mg/kg/injection, schedule: Q01DX005 (ip), vehicle: Klucel (hydroxypropylcellulose) (HPC)

Measured: T/C

COc1cc(C=Nc2cccc(F)c2)ccc1N(CCCl)CCCl
inactive: dose: 0.25 mg/kg/injection, schedule: Q01DX009 (ip), vehicle: other 109 % of control | dose: 0.5 mg/kg/injection, schedule: Q01DX009 (ip), vehicle: other 113 % of control | dose: 1.0 mg/kg/injection, schedule: Q01DX009 (ip), vehicle: other 122 % of control

O=C(CCS(=O)O)c1ccccc1
inactive: dose: 100.0 mg/kg/injection, schedule: Q04DX002 (ip), vehicle: saline 101 % of control | dose: 200.0 mg/kg/injection, schedule: Q04DX002 (ip), vehicle: saline 100 % of control | dose: 400.0 mg/kg/injection, schedule: Q04DX002 (ip), vehicle: saline 94 % of control

O=C1c2ccccc2C2(c3ccc(O)cc3)c3ccccc3Oc3cccc1c32 (configuration not stated)
inactive: [1] 90 % of control | [2] 92 % of control | [3] 95 % of control

O=C(O)C[P+](Cc1ccccc1)(c1ccccc1)c1ccccc1
inactive: [4] 97 % of control | [5] 102 % of control and 113 % of control | [6] 101 % of control and 103 % of control | [7] 95 % of control

NC(CCC(=O)NC(CS)C(=O)NCC(=O)O)C(=O)O.[CH2-]CCC.[CH2-]CCC.[CH2-]CCC.[CH2-]CCC.[Ti+4] (configuration not stated)
inactive: [1] 103 % of control | [2] 89 % of control

Clc1ccc2c(c1)C1CN(C2)Cc2ccc(Cl)cc21
inactive: dose: 100.0 mg/kg/injection, schedule: Q01DX001 (ip), vehicle: saline with Tween-80 101 % of control | dose: 200.0 mg/kg/injection, schedule: Q01DX001 (ip), vehicle: saline with Tween-80 87 % of control | dose: 400.0 mg/kg/injection, schedule: Q01DX001 (ip), vehicle: saline with Tween-80 93 % of control

Cc1ncn[nH]1
inactive: [8] 103 % of control | [9] 106 % of control | dose: 400.0 mg/kg/injection, schedule: Q01DX009 (ip), vehicle: saline 100 % of control

CC(=O)OC1OC(CS[As](C)CCO)C(OC(C)=O)C(OC(C)=O)C1OC(C)=O (configuration not stated)
inactive: [5] 110 % of control | [6] 112 % of control | [7] 112 % of control

COc1c2c3c4c5c(c(=O)cc6c5c5c(cc(=O)c(c1O)c35)OCO6)=C(O)[C@@]1(OC)O[C@H](C)C[C@@]41C2
inactive: dose: 2.5 mg/kg/injection, schedule: Q01DX009 (ip), vehicle: saline with Tween-80 95 % of control | dose: 5.0 mg/kg/injection, schedule: Q01DX009 (ip), vehicle: saline with Tween-80 95 % of control | dose: 10.0 mg/kg/injection, schedule: Q01DX009 (ip), vehicle: saline with Tween-80 95 % of control

O=C(O)C1Oc2cc3ccccc3cc2O1
inactive: [10] 90 % of control | [8] 90 % of control | [9] 97 % of control

CC1(C)N=C(N)N=C(N)N1c1ccc(OCC(=O)Nc2ccc(S(=O)(=O)F)cc2)c(Cl)c1
inactive: dose: 400.0 mg/kg/injection, schedule: Q04DX003 (ip), vehicle: saline 115 % of control
active: dose: 50.0 mg/kg/injection, schedule: Q04DX003 (ip), vehicle: saline 159 % of control | dose: 100.0 mg/kg/injection, schedule: Q04DX003 (ip), vehicle: saline 163 % of control and 175 % of control | dose: 200.0 mg/kg/injection, schedule: Q04DX003 (ip), vehicle: saline 177 % of control and 190 % of control

NC(CS)C(=O)[O][Sn]([O]C(=O)C(N)CS)([O]C(=O)C(N)CS)[O]C(=O)C(N)CS (configuration not stated)
inactive: [11] 99 % of control | [12] 108 % of control | [13] 89 % of control

O=C1C=C2C=CC3CC2(O1)C1CCCCN31 (configuration not stated)
inactive: dose: 6.25 mg/kg/injection, schedule: Q04DX002 (ip), vehicle: saline with Tween-80 113 % of control | dose: 10.0 mg/kg/injection, schedule: Q01DX010 (ip), vehicle: saline 90 % of control | dose: 12.5 mg/kg/injection, schedule: Q04DX002 (ip), vehicle: saline with Tween-80 106 % of control | dose: 20.0 mg/kg/injection, schedule: Q01DX010 (ip), vehicle: saline 90 % of control | dose: 25.0 mg/kg/injection, schedule: Q01DX010 (ip), vehicle: saline 90 % of control and 110 % of control | dose: 25.0 mg/kg/injection, schedule: Q04DX002 (ip), vehicle: saline with Tween-80 106 % of control | dose: 50.0 mg/kg/injection, schedule: Q01DX010 (ip), vehicle: saline 100 % of control and 110 % of control | dose: 100.0 mg/kg/injection, schedule: Q01DX010 (ip), vehicle: saline 100 % of control and 120 % of control

CC1OC(O[C@H]2C[C@](O)(C(=O)CO)Cc3c(O)c4c(c(O)c32)C(=O)c2c(OCc3ccccc3)cccc2C4=O)CC(N)C1O (some centres not stated)
inactive: dose: 3.13 mg/kg/injection, schedule: Q04DX003 (ip), vehicle: water 118 % of control | dose: 6.25 mg/kg/injection, schedule: Q04DX003 (ip), vehicle: distilled water + Tween-80 110 % of control | dose: 6.25 mg/kg/injection, schedule: Q04DX003 (ip), vehicle: water 118 % of control | dose: 12.5 mg/kg/injection, schedule: Q04DX003 (ip), vehicle: water 123 % of control | dose: 25.0 mg/kg/injection, schedule: Q04DX003 (ip), vehicle: water 123 % of control

CC(=O)Nc1ccc([Se](N)=O)cc1 (configuration not stated)
inactive: [1] 89 % of control | [2] 103 % of control | [3] 111 % of control

CC(=O)OC1CC2C3(C)CCC4C(C)(C)CCCC4(C)C3CC(O)C2(C)C2C1=COC2OC(C)=O (configuration not stated)
inactive: dose: 15.0 mg/kg/injection, schedule: Q01DX005 (ip), vehicle: Klucel (hydroxypropylcellulose) (HPC) 102 % of control | dose: 30.0 mg/kg/injection, schedule: Q01DX005 (ip), vehicle: Klucel (hydroxypropylcellulose) (HPC) 120 % of control

Cc1cc([N+](=O)[O-])ccc1N=Nc1ccc(O)c(C(=O)O)c1
inactive: [1] 105 % of control | [2] 95 % of control

NC(=O)NN=C(C1CC1)C1CC1
inactive: dose: 3.12 mg/kg/injection, schedule: Q01DX005 (ip), vehicle: Klucel (hydroxypropylcellulose) (HPC) 115 % of control | dose: 6.25 mg/kg/injection, schedule: Q01DX005 (ip), vehicle: Klucel (hydroxypropylcellulose) (HPC) 98 % of control | dose: 12.5 mg/kg/injection, schedule: Q01DX005 (ip), vehicle: Klucel (hydroxypropylcellulose) (HPC) 104 % of control | [11] 99 % of control

CCC(=O)NC(CC(=O)O)c1cccs1 (configuration not stated)
inactive: dose: 12.5 mg/kg/injection, schedule: Q01DX009 (ip), vehicle: saline 102 % of control | dose: 25.0 mg/kg/injection, schedule: Q01DX009 (ip), vehicle: saline 104 % of control | [10] 107 % of control | [8] 90 % of control | [9] 93 % of control

O=C1C(Sc2ccccc2)CCCC1Sc1ccccc1 (configuration not stated)
inactive: [4] 109 % of control | [5] 100 % of control | [6] 98 % of control

CC(/C=C/c1ccc(C)cc1)=N\NC(N)=S
inactive: dose: 1.5 mg/kg/injection, schedule: Q01DX005 (ip), vehicle: Klucel + Tween-80 99 % of control | dose: 3.0 mg/kg/injection, schedule: Q01DX005 (ip), vehicle: Klucel + Tween-80 105 % of control | dose: 6.0 mg/kg/injection, schedule: Q01DX005 (ip), vehicle: Klucel + Tween-80 105 % of control | dose: 6.0 mg/kg/injection, schedule: Q01DX005 (ip), vehicle: saline 112 % of control

CC(Cl)CN(CC(C)Cl)c1ccc(-c2ccccc2)cc1 (configuration not stated)
inactive: [5] 105 % of control and 109 % of control | [6] 124 % of control

CC(C)=NNS(=O)(=O)c1ccccc1
inactive: dose: 6.25 mg/kg/injection, schedule: Q01DX009 (ip), vehicle: Klucel (hydroxypropylcellulose) (HPC) 108 % of control | dose: 12.5 mg/kg/injection, schedule: Q01DX009 (ip), vehicle: Klucel (hydroxypropylcellulose) (HPC) 110 % of control | [4] 100 % of control | [5] 110 % of control | [6] 108 % of control

COc1ccc2c(c1OC)/C(=C/c1ccccc1)OC2C1c2c(cc3c(c2OC)OCO3)CCN1C (configuration not stated)
inactive: [11] 104 % of control | [12] 105 % of control | [13] 96 % of control

O=C(Nc1ccccc1C(=O)O)c1cc([N+](=O)[O-])cc([N+](=O)[O-])c1
inactive: dose: 25.0 mg/kg/injection, schedule: Q01DX009 (ip), vehicle: saline with Tween-80 114 % of control | dose: 50.0 mg/kg/injection, schedule: Q01DX009 (ip), vehicle: saline with Tween-80 113 % of control | dose: 100.0 mg/kg/injection, schedule: Q01DX009 (ip), vehicle: saline with Tween-80 109 % of control

O=C(O)Cc1cc(Cl)ccc1C(=O)O
inactive: [1] 97 % of control | [2] 97 % of control | [3] 97 % of control

O=C(CSC1CCc2ccccc21)N/N=C/c1ccco1 (configuration not stated)
inactive: [11] 98 % of control | [12] 100 % of control | [13] 88 % of control

— PubChem BioAssay AID330 (DTP/NCI, 2004)
